Reference: EP4635500A1, “THERAPEUTIC AGENT FOR BACTERIAL INFECTION” (Sumitomo Pharma Co., Ltd., priority 2022, dated 2024)
Converted amounts (≈) assume the structure as drawn. Like-named read-outs stand apart in the source and are kept apart here.

What was measured:
A. baumannii = test: MIC, broth microdilution, CDC/FDA Antibiotic Resistance Isolate Bank (Example 7, Tables 9, 13, 14); type: cell-based, Acinetobacter baumannii; details: for MIC: read-out: MIC
P. aeruginosa = test: MIC, broth microdilution, CDC/FDA Antibiotic Resistance Isolate Bank (Example 7, Tables 10, 15); type: cell-based; details: for MIC: Pseudomonas aeruginosa, read-out: MIC
[1] = 26 metallo-carbapenemase-producing P. aeruginosa strains, β-lactamase inhibitor µg/mL in parentheses
[2] = 96 strains of P. aeruginosa, β-lactamase inhibitor µg/mL in parentheses

CN(C)c1cc(NC(=O)CNC(C)(C)C)c(O)c2c1C[C@H]1C[C@H]3[C@H](N(C)C)C(O)=C(C(N)=O)C(=O)[C@@]3(O)C(O)=C1C2=O [Tigecycline, tigecycline]
MICrange (A. baumannii; 55 isolates of A. baumannii): 0.25 to 2 µg/mL
MIC (A. baumannii; Acinetobacter baumannii, A. baumannii KUB No. 5567, AR Bank #70, OXA-58, OXA-100): 0.25 µg/mL (≈ 0.427 µM)
MIC (A. baumannii; Acinetobacter baumannii, A. baumannii KUB No. 5575, AR Bank #78, OXA-71): 2 µg/mL (≈ 3.41 µM)
MIC (A. baumannii; Acinetobacter baumannii, A. baumannii KUB No. 5580, AR Bank #83, OXA-23, OXA-69, NDM-1): 0.5 µg/mL (≈ 0.854 µM)
MIC (A. baumannii; Acinetobacter baumannii, A. baumannii KUB No. 5585, AR Bank #88, OXA-64, NDM-1): 0.25 µg/mL (≈ 0.427 µM)
MIC (A. baumannii; Acinetobacter baumannii, A. baumannii KUB No. 5598, AR Bank #101, OXA-24, OXA-65): 1 µg/mL (≈ 1.71 µM)
MIC (A. baumannii; Acinetobacter baumannii, A. baumannii KUB No. 5599, AR Bank #102, OXA-66): 1 µg/mL (≈ 1.71 µM)
MIC (A. baumannii; Acinetobacter baumannii, A. baumannii KUB No. 5706, AR Bank #273, OXA-23, OXA-66): 0.5 µg/mL (≈ 0.854 µM)
MIC (A. baumannii; Acinetobacter baumannii, A. baumannii KUB No. 5707, AR Bank #274, OXA-66, OXA-72): 1 µg/mL (≈ 1.71 µM)
MIC (A. baumannii; Acinetobacter baumannii, A. baumannii KUB No. 5708, AR Bank #275, OXA-23, OXA-66): 0.5 µg/mL (≈ 0.854 µM)
MIC (A. baumannii; Acinetobacter baumannii, A. baumannii KUB No. 5709, AR Bank #276, no carbapenemase genes (-)): 1 µg/mL (≈ 1.71 µM)
MIC (A. baumannii; Acinetobacter baumannii, A. baumannii KUB No. 5710, AR Bank #277, OXA-24, OXA-65): 1 µg/mL (≈ 1.71 µM)
MIC (A. baumannii; Acinetobacter baumannii, A. baumannii KUB No. 5711, AR Bank #278, OXA-23, OXA-66): 0.5 µg/mL (≈ 0.854 µM)
MIC (A. baumannii; Acinetobacter baumannii, A. baumannii KUB No. 5712, AR Bank #279, OXA-23, OXA-66): 0.5 µg/mL (≈ 0.854 µM)
MIC (A. baumannii; Acinetobacter baumannii, A. baumannii KUB No. 5713, AR Bank #280, OXA-66): 1 µg/mL (≈ 1.71 µM)
MIC (A. baumannii; Acinetobacter baumannii, A. baumannii KUB No. 5714, AR Bank #281, OXA-82): 2 µg/mL (≈ 3.41 µM)
MIC (A. baumannii; Acinetobacter baumannii, A. baumannii KUB No. 5715, AR Bank #282, OXA-23, OXA-66): 0.5 µg/mL (≈ 0.854 µM)
MIC (A. baumannii; Acinetobacter baumannii, A. baumannii KUB No. 5716, AR Bank #283, OXA-23, OXA-66): 1 µg/mL (≈ 1.71 µM)
MIC (A. baumannii; Acinetobacter baumannii, A. baumannii KUB No. 5717, AR Bank #284, OXA-24, OXA-65): 0.5 µg/mL (≈ 0.854 µM)
MIC (A. baumannii; Acinetobacter baumannii, A. baumannii KUB No. 5718, AR Bank #285, OXA-24, OXA-65): 0.5 µg/mL (≈ 0.854 µM)
MIC (A. baumannii; Acinetobacter baumannii, KUB No. 5719, AR Bank #286): 1 µg/mL (≈ 1.71 µM)
MIC (A. baumannii; Acinetobacter baumannii, KUB No. 5720, AR Bank #287): 0.5 µg/mL (≈ 0.854 µM)
MIC (A. baumannii; Acinetobacter baumannii, KUB No. 5721, AR Bank #288): 2 µg/mL (≈ 3.41 µM)
MIC (A. baumannii; Acinetobacter baumannii, KUB No. 5722, AR Bank #259): 1 µg/mL (≈ 1.71 µM)
MIC (A. baumannii; Acinetobacter baumannii, KUB No. 5723, AR Bank #290): 0.5 µg/mL (≈ 0.854 µM)
MIC (A. baumannii; Acinetobacter baumannii, KUB No. 5724, AR Bank #291): 1 µg/mL (≈ 1.71 µM)
MIC (A. baumannii; Acinetobacter baumannii, KUB No. 5725, AR Bank #292): 0.25 µg/mL (≈ 0.427 µM)
MIC (A. baumannii; Acinetobacter baumannii, KUB No. 5726, AR Bank #293): 2 µg/mL (≈ 3.41 µM)
MIC (A. baumannii; Acinetobacter baumannii, KUB No. 5727, AR Bank #294): 0.5 µg/mL (≈ 0.854 µM)
MIC (A. baumannii; Acinetobacter baumannii, KUB No. 5728, AR Bank #295): 1 µg/mL (≈ 1.71 µM)
MIC (A. baumannii; Acinetobacter baumannii, KUB No. 5729, AR Bank #296): 1 µg/mL (≈ 1.71 µM)
MIC (A. baumannii; Acinetobacter baumannii, KUB No. 5730, AR Bank #297): 2 µg/mL (≈ 3.41 µM)
MIC (A. baumannii; Acinetobacter baumannii, KUB No. 5731, AR Bank #298): 0.5 µg/mL (≈ 0.854 µM)
MIC (A. baumannii; Acinetobacter baumannii, KUB No. 5732, AR Bank #299): 1 µg/mL (≈ 1.71 µM)
MIC (A. baumannii; Acinetobacter baumannii, KUB No. 5733, AR Bank #300): 0.5 µg/mL (≈ 0.854 µM)
MIC (A. baumannii; Acinetobacter baumannii, KUB No. 5734, AR Bank #301): 1 µg/mL (≈ 1.71 µM)
MIC (A. baumannii; Acinetobacter baumannii, KUB No. 5735, AR Bank #302): 1 µg/mL (≈ 1.71 µM)
MIC (A. baumannii; Acinetobacter baumannii, KUB No. 5736, AR Bank #303): 1 µg/mL (≈ 1.71 µM)
MIC (A. baumannii; Acinetobacter baumannii, KUB No. 5737, AR Bank #304): 1 µg/mL (≈ 1.71 µM)
MIC (A. baumannii; Acinetobacter baumannii, KUB No. 5738, AR Bank #305): 0.25 µg/mL (≈ 0.427 µM)
MIC (A. baumannii; Acinetobacter baumannii, KUB No. 5739, AR Bank #306): 1 µg/mL (≈ 1.71 µM)
MIC (A. baumannii; Acinetobacter baumannii, KUB No. 5740, AR Bank #307): 1 µg/mL (≈ 1.71 µM)
MIC (A. baumannii; Acinetobacter baumannii, KUB No. 5741, AR Bank #308): 0.5 µg/mL (≈ 0.854 µM)
MIC (A. baumannii; Acinetobacter baumannii, KUB No. 5742, AR Bank #309): 0.5 µg/mL (≈ 0.854 µM)
MIC (A. baumannii; Acinetobacter baumannii, KUB No. 5743, AR Bank #310): 1 µg/mL (≈ 1.71 µM)
MIC (A. baumannii; Acinetobacter baumannii, KUB No. 5744, AR Bank #311): 0.5 µg/mL (≈ 0.854 µM)
MIC (A. baumannii; Acinetobacter baumannii, KUB No. 5745, AR Bank #312): 0.25 µg/mL (≈ 0.427 µM)
MIC (A. baumannii; Acinetobacter baumannii, KUB No. 5746, AR Bank #313): 0.5 µg/mL (≈ 0.854 µM)
MIC50 (A. baumannii; Acinetobacter baumannii, 55 isolates of A. baumannii, read-out: MIC50): 1 µg/mL (≈ 1.71 µM)
MIC80 (A. baumannii; Acinetobacter baumannii, 55 isolates of A. baumannii, read-out: MIC80): 1 µg/mL (≈ 1.71 µM)
MIC90 (A. baumannii; Acinetobacter baumannii, 55 isolates of A. baumannii, read-out: MIC90): 1 µg/mL (≈ 1.71 µM)
Number of isolates at MIC ≤[…] (A. baumannii; MIC distribution, metallo-β-lactamase-producing A. baumannii, inhibitor µg/mL in parentheses): 3
MIC against 26 metallo-carbapenemase-producing strains MIC50 (P. aeruginosa; [1]): 4 µg(mL)
MIC against 26 metallo-carbapenemase-producing strains MIC90 (P. aeruginosa; [1]): 16 µg(mL)
MIC against 26 metallo-carbapenemase-producing strains MICrange (P. aeruginosa; [1]): 1 - 16 µg(mL)
MIC against 96 strains of P. aeruginosa MIC50 (P. aeruginosa; [2]): 4 µg(mL)
MIC against 96 strains of P. aeruginosa MIC90 (P. aeruginosa; [2]): 16 µg(mL)
MIC against 96 strains of P. aeruginosa MICrange (P. aeruginosa; [2]): 0.5 - 16 µg(mL)
MIC (P. aeruginosa; P. aeruginosa KUB No. 579, AR Bank # 447): 4 µg/mL (≈ 6.83 µM)
MIC (P. aeruginosa; P. aeruginosa KUB No. 5551, AR Bank # 54): 16 µg/mL (≈ 27.3 µM)
MIC (P. aeruginosa; P. aeruginosa KUB No. 5561, AR Bank # 64): 2 µg/mL (≈ 3.41 µM)
MIC (P. aeruginosa; P. aeruginosa KUB No. 5587, AR Bank # 90): 2 µg/mL (≈ 3.41 µM)
MIC (P. aeruginosa; P. aeruginosa KUB No. 5589, AR Bank # 92): 4 µg/mL (≈ 6.83 µM)
MIC (P. aeruginosa; P. aeruginosa KUB No. 5591, AR Bank # 94): 8 µg/mL (≈ 13.7 µM)
MIC (P. aeruginosa; P. aeruginosa KUB No. 5592, AR Bank # 95): 2 µg/mL (≈ 3.41 µM)
MIC (P. aeruginosa; P. aeruginosa KUB No. 5597, AR Bank # 100): 16 µg/mL (≈ 27.3 µM)
MIC (P. aeruginosa; P. aeruginosa KUB No. 5600, AR Bank # 103): 16 µg/mL (≈ 27.3 µM)
MIC (P. aeruginosa; P. aeruginosa KUB No. 5602, AR Bank # 105): 8 µg/mL (≈ 13.7 µM)
MIC (P. aeruginosa; P. aeruginosa KUB No. 5605, AR Bank # 108): 8 µg/mL (≈ 13.7 µM)
MIC (P. aeruginosa; P. aeruginosa KUB No. 5607, AR Bank # 110): 8 µg/mL (≈ 13.7 µM)
MIC (P. aeruginosa; P. aeruginosa KUB No. 5608, AR Bank # 111): 8 µg/mL (≈ 13.7 µM)
MIC (P. aeruginosa; P. aeruginosa KUB No. 5662, AR Bank # 229): 16 µg/mL (≈ 27.3 µM)
MIC (P. aeruginosa; P. aeruginosa KUB No. 5663, AR Bank # 230): 4 µg/mL (≈ 6.83 µM)
MIC (P. aeruginosa; P. aeruginosa KUB No. 5664, AR Bank # 231): 16 µg/mL (≈ 27.3 µM)
MIC (P. aeruginosa; P. aeruginosa KUB No. 5665, AR Bank # 232): 4 µg/mL (≈ 6.83 µM)
